Source: article PMC6010013, “Synthesis, physiochemical property and antimicrobial activity of novel quaternary ammonium salts” (Journal of Enzyme Inhibition and Medicinal Chemistry, 2017)

Tests used:
[1] = test system: β-H-tococcus; assay: MBC, agar plating of dilutions without growth; type: cell-based; conditions: 99.9% bactericidal; for MBC: read-out: Minimal bactericidal concentration (MBC)
Excerpt: In this paper, antimicrobial activities of 24 QASs were detected by quantitative tests. […] Benzalkonium chloride (BZK) and chlorhexidine acetate (CA) was selected as positive controls. Representative compound POT-C12QAS (2) which synthesised and evaluated in previous work was also taken as a reference compound in MIC, MBC and cytotoxicity tests. […]
agriculture were used as target pathogens in this study, including three strains of Gram-positive bacteria (S. Aureus, α-H-tococcus, β-H-tococcus), three strains of Gram-negative bacteria (E. coli, P. aeruginosa, Proteus vulgaris) and four strains of fungi (Canidia albicans, Cytospora mandshurica, Physalospora piricola, Aspergillus niger). The antimicrobial tests were assayed, according to standard CLSI methods for antimicrobial dilution susceptibility tests to measure the minimum inhibitory concentration (MIC) and minimum bactericidal concentration (MBC)2.
A broth tube dilution method was followed to determine the MIC values for all the screened compounds against the micro-organisms, and for comparison benzalkonium chloride (BZK) and chlorhexidine acetate (CA) was used as a reference. For sample preparation, each of the test compounds and reference were dissolved in DMSO or sterile water at a concentration of 1600 μg/mL, and further dilutions of the compounds and reference in culture medium MHB (Muller-Hinton Broth) were prepared at the required quantities of 400, 200, 100 etc., down to 0.39 μg/mL. Bacterial strains and fungal strains were maintained on MHA (Muller-Hinton Agar) medium at 37℃ or 28 ℃ for 12 h or 72h, respectively. The microbial inocula were prepared by suspension in 10 mL of culture medium for colonies from culture on MHA. The cell density of each inoculum was adjusted in culture medium of a 0.5 McFarland standard (1-2×10^8 CFU/mL). The final amount applied was 10^5 CFU/mL for bacteria and fungi. The microbial inocula were added to the twofold diluted samples. One growth control tube was prepared […] the addition of the compound and one blank tube was prepared without the addition of the microorganism. MIC values were read after incubation at 37℃ or 28 ℃ for bacterial and fungal strains, respectively. […]
was placed on agar plates in triplicate, and incubated at 37℃ or 28 ℃ for 12 h or 72h. The number of colonies on each plate was read, and the MBC was determined as the lowest concentration that achieved a 99.9% bactericidal in the agar plate.

[2] = Haemolysis assay; type: cell-based; conditions: human red blood cells (erythrocyte suspension), 1 h at 37 ℃, read-out: Haemolysis rate; for hemolysis at 1 h, 12.5 μg/mL: 12.50 μg/mL
Description: The surfactant may be absorbed and penetrate to the cell membrane, where it makes osmotic phenomena by altering the permeability of membrane, which in turn causes the cellular lysis. Haemolysis assay gives quantitative estimation about haemoglobin release when red blood cells are treated with QASs. Haemolytic assay of QASs at different concentration was carried out in Table 4. […] For 5a-b, 6a-b, 10a-c, 13a-b, and 16a-d, their safe concentration can more than 100 μg/mL. Compared with BZK and CA, all QASs were safe to be used when they circulated into the blood in low concentration. […]
The human blood from healthy individual was collected in a tube containing heparin, and the blood was centrifuged at 1500 rpm for 3 min. The […] (Erythrocyte) was collected and plasma was discarded and further washed five times with sterile normal saline solution. Then the cells were diluted to 0.2% of their volume with normal saline solution. 2 mL of the diluted red blood cells suspension was mixed with (a) 2 mL of normal salinesolution as a negative control; (b) 2 mL of distilled water as a positive control; (c) 2 mL of QAS solution which were dispersed into normal saline solution at the different concentrations ranging from 3.125 to 400 μg/mL. Then the mixtures were shaken well and incubated for 1 h at 37 ℃. Finally, the mixtures were centrifuged for 5min at 2000 r/min and the absorbances of supernatant at 540 nm was measured by a microplate reader (Multiskan MK3-Thermo Labsystems, USA). The hemolysis ratio was calculated as follows: The hemolysis ratio(%) = (OD Sample−OD Negative)/(OD Positive −OD Negative) ×100%. The hemolysis evaluation of QASs was performed in triplicate and results were expressed as the mean ± SD.

[3] = Cytotoxicity, MTT assay; type: cell-based, human; conditions: human, MTT, 24 h
Description: These six series of antimicrobial compounds may be applied to daily or clinical disinfectants for unbroken skin and trauma, or agricultural fungicides alternatively. Thus, their cytotoxicity for skin or body tissues are crucial. In this study, the cytotoxicity of target compounds was evaluated for human immortalised epidermal (HaCat) and human normal liver (LO2) cell line using MTT assay. […] The IC50 values of 5a, 6a, 10a, 16a, 16 b were about more than 50 μg/mL for LO2 and HaCat.
Cytotoxicity Testing with MTT Method
Human immortalized epidermal cells (HaCat) line were cultured in Dulbecco’s modified Eagle’s medium containing 10% fetal bovine serum, 1% penicillin, and 1% streptomycin at 37°C in a 5% CO2/95% air incubator MCO-15AC (SANYO). Human normal liver cells (LO2) line were cultured in Roswell Park Memorial Institute medium containing 10% fetal bovine serum, 1% penicillin, and 1% streptomycin at 37°C in a 5% CO2/95% air incubator MCO-15AC (SANYO). HaCat or LO2 cells in 96-well plate were adjusted to 1.0 × 10^5 cells mL-1 and cells were passed and cell supernatant was pour out before plating on glass slide at 37°C, 5% CO2 for 24 h. Cells were pretreated with 100 μL QAS for 24 h and cell supernatant with QAS was pour out and washed with PBS buffer system. Then, the cells were treated with the MTT solution (MTT, 3-(4,5-dimethythiazol-2-yl)-2,5-diphenyl-tetrazolium bromide, 20 μL, 5 mg/mL) for 4 h. The dark blue formazan crystal formed in the intact cells was solubilized with dimethyl sulfoxide, and absorbance at 570 nm was measured with a microplate reader (Multiskan MK3-Thermo Labsystems, USA). The results were expressed as percentage of the control value from the normal cells without treatments of QAS. […]

[4] = HaCat human immortalised epidermal cells, HaCat cells
[5] = LO2 human normal liver cells, LO2 cells

[H]/N=C(\N/C(=N/[H])NCCCCCCNC(=N)NC(=N)Nc1ccc(Cl)cc1)Nc1ccc(Cl)cc1 [CA, chlorhexidine acetate, reference compound]
MBC [1]: 3.12 µg/mL | hemolysis at 1 h, 6.25 μg/mL [2]: 0.86 ± 0.28% | hemolysis at 1 h, 12.5 μg/mL [2]: 2.51 ± 0.87% | hemolysis at 1 h, 25 μg/mL [2]: 5.29 ± 1.22% | hemolysis at 1 h, 50 μg/mL [2]: 37 ± 3.78% | hemolysis at 1 h, 100 μg/mL [2]: 62.2 ± 3.53% | hemolysis at 1 h, 200 μg/mL [2]: 86 ± 3.82% | hemolysis at 1 h, 400 μg/mL [2]: 95.7 ± 3.54%

C[N+](CCO)(CCO)CCCCCCCCCCCCSc1nnc(-c2ccccc2)o1 [Compound 2, reference compound]
MBC [1]: 6.25 µg/mL | IC50 at 24 h [3, 4]: 18.3 ± 2.21 µg/mL | IC50 at 24 h [3, 5]: 14.2 ± 2.15 µg/mL | hemolysis at 1 h, 6.25 μg/mL [2]: 0.18 ± 0.05% | hemolysis at 1 h, 12.5 μg/mL [2]: 0.42 ± 0.13% | hemolysis at 1 h, 25 μg/mL [2]: 0.93 ± 0.41% | hemolysis at 1 h, 50 μg/mL [2]: 4.11 ± 0.89% | hemolysis at 1 h, 100 μg/mL [2]: 17.1 ± 2.34% | hemolysis at 1 h, 200 μg/mL [2]: 82.8 ± 3.18% | hemolysis at 1 h, 400 μg/mL [2]: 90.6 ± 4.23%

C[N+](CCO)(CCO)CCCCCCSc1nnc(-c2ccc(F)cc2)o1 [Compound 5a]
MBC [1]: 25 µg/mL | IC50 at 24 h ([3]; HaCat cells): > 50 µg/mL | IC50 at 24 h [3, 5]: > 50 µg/mL | hemolysis at 1 h, 6.25 μg/mL [2]: 0.21 ± 0.03% | hemolysis at 1 h, 12.5 μg/mL [2]: 0.53 ± 0.15% | hemolysis at 1 h, 25 μg/mL [2]: 1.37 ± 0.87% | hemolysis at 1 h, 50 μg/mL [2]: 1.54 ± 0.96% | hemolysis at 1 h, 100 μg/mL [2]: 3.25 ± 1.23% | hemolysis at 1 h, 200 μg/mL [2]: 6.21 ± 3.21% | hemolysis at 1 h, 400 μg/mL [2]: 35.6 ± 4.87%

C[N+](CCO)(CCO)CCCCCCCCCCSc1nnc(-c2ccc(F)cc2)o1 [Compound 5c]
MBC [1]: 12.5 µg/mL | IC50 at 24 h ([3]; HaCat cells): 19.4 ± 1.23 µg/mL | IC50 at 24 h [3, 5]: 23.9 ± 1.68 µg/mL | hemolysis at 1 h, 6.25 μg/mL [2]: 0.43 ± 0.16% | hemolysis at 1 h, 12.5 μg/mL [2]: 0.75 ± 0.19% | hemolysis at 1 h, 25 μg/mL [2]: 2.31 ± 0.67% | hemolysis at 1 h, 50 μg/mL [2]: 4.89 ± 0.53% | hemolysis at 1 h, 100 μg/mL [2]: 33.1 ± 4.87% | hemolysis at 1 h, 200 μg/mL [2]: 52.3 ± 6.34% | hemolysis at 1 h, 400 μg/mL [2]: 67.2 ± 5.89%

C[N+](CCO)(CCO)CCCCCCCCCCCCSc1nnc(-c2ccc(F)cc2)o1 [Compound 5d]
MBC [1]: 6.25 µg/mL | IC50 at 24 h ([3]; HaCat cells): 6.14 ± 0.53 µg/mL | IC50 at 24 h [3, 5]: 6.95 ± 0.62 µg/mL | hemolysis at 1 h, 6.25 μg/mL [2]: 0.49 ± 0.12% | hemolysis at 1 h, 12.5 μg/mL [2]: 0.87 ± 0.27% | hemolysis at 1 h, 25 μg/mL [2]: 2.43 ± 0.82% | hemolysis at 1 h, 50 μg/mL [2]: 4.81 ± 0.74% | hemolysis at 1 h, 100 μg/mL [2]: 32.4 ± 6.78% | hemolysis at 1 h, 200 μg/mL [2]: 66.7 ± 5.21% | hemolysis at 1 h, 400 μg/mL [2]: 66.9 ± 4.12%

C[N+](CCO)(CCO)CCCCCCSc1nnc(-c2ccc(C(F)(F)F)cc2)o1 [Compound 6a]
MBC [1]: 25 µg/mL | IC50 at 24 h ([3]; HaCat cells): > 50 µg/mL | IC50 at 24 h [3, 5]: > 50 µg/mL | hemolysis at 1 h, 6.25 μg/mL [2]: 0.15 ± 0.08% | hemolysis at 1 h, 12.5 μg/mL [2]: 0.35 ± 0.17% | hemolysis at 1 h, 25 μg/mL [2]: 0.51 ± 0.19% | hemolysis at 1 h, 50 μg/mL [2]: 0.99 ± 0.12% | hemolysis at 1 h, 100 μg/mL [2]: 3.38 ± 1.23% | hemolysis at 1 h, 200 μg/mL [2]: 7.09 ± 2.89% | hemolysis at 1 h, 400 μg/mL [2]: 41 ± 5.32%

C[N+](CCO)(CCO)CCCCCCCCSc1nnc(-c2ccc(C(F)(F)F)cc2)o1 [Compound 6b]
MBC [1]: 12.5 µg/mL | IC50 at 24 h ([3]; HaCat cells): > 25 µg/mL | IC50 at 24 h [3, 5]: > 25 µg/mL | hemolysis at 1 h, 6.25 μg/mL [2]: 0.18 ± 0.06% | hemolysis at 1 h, 12.5 μg/mL [2]: 0.51 ± 0.08% | hemolysis at 1 h, 25 μg/mL [2]: 0.43 ± 0.1% | hemolysis at 1 h, 50 μg/mL [2]: 0.7 ± 0.18% | hemolysis at 1 h, 100 μg/mL [2]: 4.61 ± 0.31% | hemolysis at 1 h, 200 μg/mL [2]: 26.2 ± 3.68% | hemolysis at 1 h, 400 μg/mL [2]: 80.4 ± 4.98%

C[N+](CCO)(CCO)CCCCCCCCCCSc1nnc(-c2ccc(C(F)(F)F)cc2)o1.[Br-] [Compound 6c]
MBC [1]: 6.25 µg/mL | IC50 at 24 h [3, 4]: 12.1 ± 1.57 µg/mL | IC50 at 24 h [3, 5]: 19.6 ± 1.62 µg/mL | hemolysis at 1 h, 6.25 μg/mL [2]: 0.57 ± 0.15% | hemolysis at 1 h, 12.5 μg/mL [2]: 0.42 ± 0.13% | hemolysis at 1 h, 25 μg/mL [2]: 0.67 ± 0.13% | hemolysis at 1 h, 50 μg/mL [2]: 3.56 ± 1.32% | hemolysis at 1 h, 100 μg/mL [2]: 35.8 ± 5.1% | hemolysis at 1 h, 200 μg/mL [2]: 82.5 ± 6.12% | hemolysis at 1 h, 400 μg/mL [2]: 89.4 ± 4.35%

C[N+](CCO)(CCO)CCCCCCCCCCCCSc1nnc(-c2ccc(C(F)(F)F)cc2)o1.[Br-] [Compound 6d]
MBC [1]: 3.12 µg/mL | IC50 at 24 h [3, 4]: 5.25 ± 0.37 µg/mL | IC50 at 24 h [3, 5]: 5.86 ± 0.61 µg/mL | hemolysis at 1 h, 6.25 μg/mL [2]: 0.64 ± 0.19% | hemolysis at 1 h, 12.5 μg/mL [2]: 1.05 ± 0.28% | hemolysis at 1 h, 25 μg/mL [2]: 2.02 ± 3.45% | hemolysis at 1 h, 50 μg/mL [2]: 4.85 ± 4.65% | hemolysis at 1 h, 100 μg/mL [2]: 36.4 ± 6.35% | hemolysis at 1 h, 200 μg/mL [2]: 85.6 ± 4.86% | hemolysis at 1 h, 400 μg/mL [2]: 92.5 ± 3.87%

C[N+](CCO)(CCO)CCCCCCCCCCCCSc1nc2ccccc2s1 [Compound 13d]
MBC [1]: ~3.12 µg/mL | IC50 at 24 h ([3]; HaCat cells): 6.02 ± 0.35 µg/mL | IC50 at 24 h [3, 5]: 8.96 ± 0.46 µg/mL | hemolysis at 1 h, 6.25 μg/mL [2]: 0.56 ± 0.13% | hemolysis at 1 h, 12.5 μg/mL [2]: 1.5 ± 0.72% | hemolysis at 1 h, 25 μg/mL [2]: 3.98 ± 1.03% | hemolysis at 1 h, 50 μg/mL [2]: 11.2 ± 2.86% | hemolysis at 1 h, 100 μg/mL [2]: 48.6 ± 3.54% | hemolysis at 1 h, 200 μg/mL [2]: 65.2 ± 3.91% | hemolysis at 1 h, 400 μg/mL [2]: 83.7 ± 4.12%

Benzalkonium chloride [BZK, reference compound]
Minimal bactericidal concentration (MBC) [1]: 1.56 µg/mL
